# Test results as given in ChEMBL document CHEMBL4346752, “Discovery and evaluation of novel nitrodihydroimidazooxazoles as promising anti-tuberculosis agents” (Bioorg Med Chem Lett, 2019).
# Tested on: Mycobacterium tuberculosis variant bovis
# Assay: Antimycobacterial activity against Mycobacterium bovis ATCC 35737 assessed as reduction in bacterial cell growth incubated for 8 days by alamar blue staining based assay
# Type: functional
# Conditions: ATCC 35737, 192 h
row,Compound,MIC [µg/mL]
1,C[C@]1(CN2CCc3sc(-c4ccc(F)cc4)nc3C2)Cn2cc([N+](=O)[O-])nc2O1,0.25
2,C[C@]1(CN2CCc3nc(-c4ccc(F)cc4)nnc3C2)Cn2cc([N+](=O)[O-])nc2O1,0.5
3,C[C@]1(CN2CCc3nc(-c4ccc(Cl)c(F)c4)ccc3C2)Cn2cc([N+](=O)[O-])nc2O1,≤ 0.0625
4,C[C@]1(CN2CCn3cc(-c4ccc(F)cc4)nc3C2)Cn2cc([N+](=O)[O-])nc2O1,1
5,C[C@]1(CN2CCc3nc(-c4cc(F)c(F)c(F)c4)ccc3C2)Cn2cc([N+](=O)[O-])nc2O1,≤ 0.0625
6,C[C@]1(CN2CCc3oc(-c4ccc(F)c(F)c4)nc3C2)Cn2cc([N+](=O)[O-])nc2O1,0.25
7,C[C@]1(CN2CCc3oc(-c4ccc(F)cc4)nc3C2)Cn2cc([N+](=O)[O-])nc2O1,0.5
8,C[C@]1(CN2CCc3nc(-c4cccc(F)c4F)ccc3C2)Cn2cc([N+](=O)[O-])nc2O1,≤ 0.0625
9,C[C@]1(CN2CCc3nc(-c4ccc(F)cc4F)ccc3C2)Cn2cc([N+](=O)[O-])nc2O1,≤ 0.0625
10,C[C@]1(CN2CCc3nc(-c4cc(F)ccc4Cl)ccc3C2)Cn2cc([N+](=O)[O-])nc2O1,≤ 0.0625
11,C[C@]1(CN2CCc3nc(-c4ccccc4)ccc3C2)Cn2cc([N+](=O)[O-])nc2O1,0.25
12,C[C@]1(CN2CCc3nc(-c4ccc(C#N)cc4)ccc3C2)Cn2cc([N+](=O)[O-])nc2O1,2
13,C[C@]1(CN2CCc3nc(C(F)(F)F)ccc3C2)Cn2cc([N+](=O)[O-])nc2O1,2
14,C[C@]1(CN2CCc3nc(-c4ccc(F)cc4)ccc3C2)Cn2cc([N+](=O)[O-])nc2O1,≤ 0.0625
15,C[C@]1(CN2CCn3cc(-c4ccc(F)c(F)c4)nc3C2)Cn2cc([N+](=O)[O-])nc2O1,1
16,C[C@]1(CN2CCc3nc(-c4cc(F)cc(Cl)c4)ccc3C2)Cn2cc([N+](=O)[O-])nc2O1,≤ 0.0625
17,C[C@]1(CN2CCc3nc(-c4cc(Cl)ccc4F)ccc3C2)Cn2cc([N+](=O)[O-])nc2O1,≤ 0.0625
18,C[C@]1(CN2CCc3nc(-c4cccc(F)c4)ccc3C2)Cn2cc([N+](=O)[O-])nc2O1,≤ 0.0625
19,C[C@]1(CN2CCc3nc(-c4cccc(Cl)c4F)ccc3C2)Cn2cc([N+](=O)[O-])nc2O1,≤ 0.0625
20,C[C@]1(CN2CCc3nc(-c4ccc(Cl)cc4F)ccc3C2)Cn2cc([N+](=O)[O-])nc2O1,≤ 0.0625
21,C[C@]1(CN2CCc3nc(C4CCCCC4)ccc3C2)Cn2cc([N+](=O)[O-])nc2O1,0.25

row,Compound,MIC [µg/mL]
1,C[C@]1(CN2CCc3oc(-c4ccc(F)cc4)cc3C2)Cn2cc([N+](=O)[O-])nc2O1,1
2,C[C@]1(CN2CCc3nc(N4CCCCC4)ccc3C2)Cn2cc([N+](=O)[O-])nc2O1,0.5
3,C[C@]1(CN2CCc3nc(-c4ccccc4F)ccc3C2)Cn2cc([N+](=O)[O-])nc2O1,0.125
4,C[C@]1(CN2CCc3nc(-c4cc(F)ccc4F)ccc3C2)Cn2cc([N+](=O)[O-])nc2O1,≤ 0.0625
5,C[C@]1(CN2CCc3nc(N4CCC(F)(F)CC4)ccc3C2)Cn2cc([N+](=O)[O-])nc2O1,0.5
6,C[C@]1(CN2CCc3nc(C4CCOCC4)ccc3C2)Cn2cc([N+](=O)[O-])nc2O1,2
7,C[C@]1(COc2ccc(N3CCC(Oc4ccc(OC(F)(F)F)cc4)CC3)cc2)Cn2cc([N+](=O)[O-])nc2O1,≤ 0.0625
8,C[C@]1(CN2CCc3nc(-c4ccc(OC(F)(F)F)cc4)ccc3C2)Cn2cc([N+](=O)[O-])nc2O1,8
9,C[C@]1(CN2CCn3nc(-c4ccc(F)c(F)c4)nc3C2)Cn2cc([N+](=O)[O-])nc2O1,1
10,C[C@]1(CN2CCc3nc(-c4cc(F)cc(F)c4)ccc3C2)Cn2cc([N+](=O)[O-])nc2O1,≤ 0.0625
11,C[C@]1(CN2CCc3nc(C4CC4)ccc3C2)Cn2cc([N+](=O)[O-])nc2O1,0.5
12,C[C@]1(CN2CCc3nc(-c4ccc(F)c(F)c4)ccc3C2)Cn2cc([N+](=O)[O-])nc2O1,≤ 0.0625
13,C[C@]1(CN2CCc3nc(N4CCOCC4)ccc3C2)Cn2cc([N+](=O)[O-])nc2O1,0.5
14,C[C@]1(CN2CCc3nc(-c4ccc(F)cc4)sc3C2)Cn2cc([N+](=O)[O-])nc2O1,0.125
15,C[C@]1(CN2CCc3nc(-c4ccc(Cl)cc4)ccc3C2)Cn2cc([N+](=O)[O-])nc2O1,2
16,C[C@]1(CN2CCc3nc(-c4ccccc4)ncc3C2)Cn2cc([N+](=O)[O-])nc2O1,1
17,C[C@]1(CN2CCc3nc(-c4ccc(F)cc4)oc3C2)Cn2cc([N+](=O)[O-])nc2O1,0.25
18,C[C@]1(CN2CCc3nc(-c4ccc(F)c(Cl)c4)ccc3C2)Cn2cc([N+](=O)[O-])nc2O1,≤ 0.0625
19,C[C@]1(CN2CCc3nc(-c4ccc(C(F)(F)F)cc4)ccc3C2)Cn2cc([N+](=O)[O-])nc2O1,≤ 0.0625
20,C[C@]1(CN2CCc3nc(-c4ccc(F)c(F)c4)oc3C2)Cn2cc([N+](=O)[O-])nc2O1,0.125
